Source: ChEMBL document CHEMBL4184210, “Optimization of novel monobactams with activity against carbapenem-resistant Enterobacteriaceae - Identification of LYS228” (Bioorg Med Chem Lett, 2018)
In brackets after ≈: the same amount, converted by molar mass.

Legend:
[1] = system: Escherichia coli; assay: microbe, parasite or virus in culture
Description: Antimicrobial activity against Escherichia coli expressing beta-lactamase Oxa-146 by CLSI broth microdilution method

[2] = system: Escherichia coli; assay: microbe, parasite or virus in culture; remark: listed apart in the source
Description: Antimicrobial activity against Escherichia coli expressing beta-lactamase NMC-A by CLSI broth microdilution method

[3] = system: Escherichia coli; assay: microbe, parasite or virus in culture; remark: listed apart in the source
Description: Antimicrobial activity against Escherichia coli expressing beta-lactamase TEM-121 by CLSI broth microdilution method

[4] = system: Enterobacteriaceae; assay: Antimicrobial activity against ESBL, KPC and MBL producing Enterobacteriaceae by CLSI broth microdilution method; format: functional
[5] = system: Escherichia coli; assay: microbe, parasite or virus in culture; remark: listed apart in the source
Description: Antimicrobial activity against Escherichia coli expressing beta-lactamase Oxa-225 by CLSI broth microdilution method

[6] = system: Pseudomonas aeruginosa; assay: Antimicrobial activity against Pseudomonas aeruginosa ATCC 27853 by CLSI broth microdilution method; format: functional
[7] = system: Escherichia coli; assay: microbe, parasite or virus in culture; remark: listed apart in the source
Description: Antimicrobial activity against Escherichia coli expressing beta-lactamase Oxa-181 by CLSI broth microdilution method

[8] = system: Pseudomonas aeruginosa; assay: Antimicrobial activity against Pseudomonas aeruginosa expressing nalB/delta-mexXY/delta-mexCDoprJ/delta-ampC by CLSI broth microdilution method; format: functional
[9] = system: Escherichia coli; assay: microbe, parasite or virus in culture; remark: listed apart in the source
Description: Antimicrobial activity against Escherichia coli expressing beta-lactamase KPC-3 by CLSI broth microdilution method

[10] = system: Escherichia coli; assay: microbe, parasite or virus in culture; remark: listed apart in the source
Description: Antimicrobial activity against Escherichia coli expressing beta-lactamase P99 by CLSI broth microdilution method

[11] = system: Escherichia coli; assay: microbe, parasite or virus in culture; remark: listed apart in the source
Description: Antimicrobial activity against Escherichia coli expressing beta-lactamase VEB-7 by CLSI broth microdilution method

[12] = system: Escherichia coli; assay: microbe, parasite or virus in culture; remark: listed apart in the source
Description: Antimicrobial activity against Escherichia coli expressing beta-lactamase IMP-1 by CLSI broth microdilution method

[13] = system: Escherichia coli; assay: microbe, parasite or virus in culture; remark: listed apart in the source
Description: Antimicrobial activity against wild type Escherichia coli by CLSI broth microdilution method

[14] = system: Escherichia coli; assay: microbe, parasite or virus in culture; remark: listed apart in the source
Description: Antimicrobial activity against Escherichia coli expressing beta-lactamase Oxa-48 by CLSI broth microdilution method

[15] = system: Escherichia coli; assay: Antimicrobial activity against Escherichia coli expressing beta-lactamase NDM-1 by CLSI broth microdilution method; format: functional
[16] = system: Escherichia coli; assay: microbe, parasite or virus in culture; remark: listed apart in the source
Description: Antimicrobial activity against Escherichia coli expressing beta-lactamase TEM-24 by CLSI broth microdilution method

[17] = system: Escherichia coli; assay: microbe, parasite or virus in culture; remark: listed apart in the source
Description: Antimicrobial activity against Escherichia coli expressing beta-lactamase Oxa-51 by CLSI broth microdilution method

[18] = system: Escherichia coli; assay: microbe, parasite or virus in culture; remark: listed apart in the source
Description: Antimicrobial activity against Escherichia coli expressing beta-lactamase MIR-1 by CLSI broth microdilution method

[19] = system: Mus musculus; assay: Toxicity in CD1 mouse assessed as induction of convulsion at 100 mg/kg, icv measured 1 hr after post dose; format: organism-based; details: in vivo, icv_or_intrathecal
[20] = system: Escherichia coli; assay: microbe, parasite or virus in culture; remark: listed apart in the source
Description: Antimicrobial activity against Escherichia coli expressing beta-lactamase GES-1 by CLSI broth microdilution method

[21] = system: Escherichia coli; assay: Antimicrobial activity against Escherichia coli expressing beta-lactamase TEM-1 by CLSI broth microdilution method; format: functional
[22] = system: Escherichia coli; assay: microbe, parasite or virus in culture; remark: listed apart in the source
Description: Antimicrobial activity against Escherichia coli expressing beta-lactamase IMI-1 by CLSI broth microdilution method

[23] = AUC in dog at 10 mg/kg, iv; format: ADME, organism-based, Canis lupus familiaris; details: in vivo
[24] = Clearance in mouse at 10 mg/kg, iv; format: ADME, organism-based; details: in vivo
[25] = Volume of distribution in dog at 10 mg/kg, iv; format: ADME, organism-based, Canis lupus familiaris; details: in vivo
[26] = Stability assessed as assessed as Escherichia coli beta-lactamase KPC-2-mediated compound hydrolysis by measuring molar enthalpy of hydrolysis at 1 mM by isothermal titration calorimetry; format: ADME; details: 1000 µM
[27] = system: Klebsiella pneumoniae; assay: Antimicrobial activity against Klebsiella pneumoniae expressing beta-lactamase NDM-1 by CLSI broth microdilution method; format: functional
[28] = Drug excretion in rat assessed as unchanged parent drug level at 10 mg/kg, iv; format: ADME, organism-based; details: in vivo, read-out: Drug excretion
[29] = Clearance in rat at 10 mg/kg, iv; format: ADME, organism-based; details: in vivo
[30] = Volume of distribution in rat at 10 mg/kg, iv; format: ADME, organism-based; details: in vivo
[31] = Half life in mouse at 10 mg/kg, iv; format: ADME, organism-based; details: in vivo
[32] = in vitro; details: dog, plasma
Description: Protein binding in dog plasma

[33] = AUC in mouse at 10 mg/kg, iv; format: ADME, organism-based; details: in vivo
[34] = system: Klebsiella pneumoniae; assay: Antimicrobial activity against Klebsiella pneumoniae expressing beta-lactamase NDM-1 infected in neutropenic mouse thigh infection model assessed as compound dose causing 1 log10 CFU reduction in bacterial load dosed subcutaneously every 4 hrs; format: functional
[35] = Clearance in dog at 10 mg/kg, iv; format: ADME, organism-based, Canis lupus familiaris; details: in vivo
[36] = system: Klebsiella pneumoniae; assay: Antimicrobial activity against Klebsiella pneumoniae expressing beta-lactamase NDM-1 infected in neutropenic mouse thigh infection model assessed as fT>MIC for causing 1 log10 CFU reduction in bacterial load dosed subcutaneously every 4 hrs; format: functional
[37] = Half life in dog at 10 mg/kg, iv; format: ADME, organism-based, Canis lupus familiaris; details: in vivo
[38] = Volume of distribution in mouse at 10 mg/kg, iv; format: ADME, organism-based; details: in vivo
[39] = in vitro; details: mouse, plasma
Description: Protein binding in mouse plasma

[40] = in vitro; details: rat, plasma
Description: Protein binding in rat plasma

[41] = Half life in rat at 10 mg/kg, iv; format: ADME, organism-based; details: in vivo
[42] = in vitro; details: human, plasma
Description: Protein binding in human plasma

[43] = Drug excretion in dog assessed as unchanged parent drug level at 10 mg/kg, iv; format: ADME, organism-based, Canis lupus familiaris; details: in vivo, read-out: Drug excretion
[44] = AUC in rat at 10 mg/kg, iv; format: ADME, organism-based; details: in vivo

NC[C@@H]1CN(C[C@@H]2[C@H](NC(=O)/C(=N\OC3(C(=O)O)CC3)c3csc(N)n3)C(=O)N2S(=O)(=O)O)C(=O)O1 (stereo in doubt)
MIC [1]: 2 µg/mL (≈ 3.65 µM) | MIC [2]: 0.125 µg/mL (≈ 0.228 µM) | MIC [3]: ≤ 0.06 µg/mL | MIC90 [4]: 1 µg/mL (≈ 1.83 µM) | MIC [5]: 0.5 µg/mL (≈ 0.913 µM) | MIC [6]: 32 µg/mL (≈ 58.4 µM) | MIC [7]: 0.25 µg/mL (≈ 0.457 µM) | MIC [8]: > 64 µg/mL | MIC [9]: 0.125 µg/mL (≈ 0.228 µM) | MIC [10]: 0.125 µg/mL (≈ 0.228 µM) | MIC [11]: 32 µg/mL (≈ 58.4 µM) | MIC [12]: 0.06 µg/mL (≈ 0.11 µM) | MIC [13]: 0.125 µg/mL (≈ 0.228 µM) | MIC [14]: 0.06 µg/mL (≈ 0.11 µM) | MIC [15]: 0.125 µg/mL (≈ 0.228 µM) | MIC [16]: 0.125 µg/mL (≈ 0.228 µM) | MIC [17]: ≤ 0.06 µg/mL | MIC [18]: ≤ 0.06 µg/mL | Activity [19]: Toxic | MIC [20]: 0.06 µg/mL (≈ 0.11 µM) | MIC [21]: 0.125 µg/mL (≈ 0.228 µM) | MIC [22]: 0.125 µg/mL (≈ 0.228 µM)

Nc1nc(/C(=N/OC2(C(=O)O)CC2)C(=O)N[C@@H]2C(=O)N(S(=O)(=O)O)[C@@H]2CN2CCOC2=O)cs1 (stereo in doubt) [ANCREMONAM]
MIC [1]: 2 µg/mL (≈ 3.86 µM) | AUC [23]: 13000 ng·h/mL | clearance [24]: 16 mL/min/kg | Vd [25]: 0.2 L/kg | Stability [26]: Stable | MIC [2]: 0.125 µg/mL (≈ 0.241 µM) | MIC [3]: 0.25 µg/mL (≈ 0.482 µM) | MIC90 [4]: 2 µg/mL (≈ 3.86 µM) | MIC [27]: 1 µg/mL (≈ 1.93 µM) | MIC [5]: 1 µg/mL (≈ 1.93 µM) | dose excreted [28]: 30% | MIC [6]: 32 µg/mL (≈ 61.7 µM) | clearance [29]: 9 mL/min/kg | Vd [30]: 0.3 L/kg | MIC [7]: 0.125 µg/mL (≈ 0.241 µM) | half-life [31]: 18 min | fraction unbound [32]: 0.76 | AUC [33]: 10000 ng·h/mL | MIC [8]: ≥ 64 µg/mL | MIC [9]: 0.25 µg/mL (≈ 0.482 µM) | Activity [34]: 1590 mg/kg/day | clearance [35]: 4 mL/min/kg | fT>MIC [36]: 65% | half-life [37]: 48 min | MIC [10]: 0.25 µg/mL (≈ 0.482 µM) | Vd [38]: 0.3 L/kg | MIC [11]: 16 µg/mL (≈ 30.9 µM) | MIC [12]: 0.125 µg/mL (≈ 0.241 µM) | MIC [13]: 0.125 µg/mL (≈ 0.241 µM) | MIC [14]: 0.125 µg/mL (≈ 0.241 µM) | MIC [15]: 0.125 µg/mL (≈ 0.241 µM) | fraction unbound [39]: 0.74 | fraction unbound [40]: 0.53 | MIC [16]: 0.5 µg/mL (≈ 0.964 µM) | MIC [17]: 0.125 µg/mL (≈ 0.241 µM) | MIC [18]: 0.125 µg/mL (≈ 0.241 µM) | half-life [41]: 36 min | Activity [19]: Non-Toxic | fraction unbound [42]: 0.87 | MIC [20]: 0.125 µg/mL (≈ 0.241 µM) | dose excreted [43]: 34% | MIC [21]: 0.25 µg/mL (≈ 0.482 µM) | AUC [44]: 19000 ng·h/mL | MIC [22]: 0.125 µg/mL (≈ 0.241 µM)

N=C(N)NCc1cn(C[C@@H]2[C@H](NC(=O)/C(=N\OC3(C(=O)O)CC3)c3csc(N)n3)C(=O)N2S(=O)(=O)O)nn1 (stereo in doubt)
MIC [1]: 1 µg/mL (≈ 1.75 µM) | MIC [2]: 0.125 µg/mL (≈ 0.219 µM) | MIC [3]: 1 µg/mL (≈ 1.75 µM) | MIC90 [4]: 2 µg/mL (≈ 3.5 µM) | MIC [5]: 0.25 µg/mL (≈ 0.437 µM) | MIC [7]: 0.25 µg/mL (≈ 0.437 µM) | MIC [9]: 0.125 µg/mL (≈ 0.219 µM) | MIC [10]: 0.25 µg/mL (≈ 0.437 µM) | MIC [11]: 32 µg/mL (≈ 56 µM) | MIC [12]: 0.125 µg/mL (≈ 0.219 µM) | MIC [13]: 0.125 µg/mL (≈ 0.219 µM) | MIC [14]: 0.125 µg/mL (≈ 0.219 µM) | MIC [15]: 0.125 µg/mL (≈ 0.219 µM) | MIC [16]: 0.25 µg/mL (≈ 0.437 µM) | MIC [17]: 0.25 µg/mL (≈ 0.437 µM) | MIC [18]: 0.5 µg/mL (≈ 0.875 µM) | MIC [20]: 0.06 µg/mL (≈ 0.105 µM) | MIC [21]: 0.125 µg/mL (≈ 0.219 µM) | MIC [22]: 0.06 µg/mL (≈ 0.105 µM)

N=C(N)NCc1cnn(C[C@@H]2[C@H](NC(=O)/C(=N\OC3(C(=O)O)CC3)c3csc(N)n3)C(=O)N2S(=O)(=O)O)n1 (stereo in doubt)
MIC [1]: 4 µg/mL (≈ 7 µM) | MIC [2]: 0.125 µg/mL (≈ 0.219 µM) | MIC [3]: 0.5 µg/mL (≈ 0.875 µM) | MIC90 [4]: 4 µg/mL (≈ 7 µM) | MIC [5]: 0.25 µg/mL (≈ 0.437 µM) | MIC [6]: 2 µg/mL (≈ 3.5 µM) | MIC [7]: 0.125 µg/mL (≈ 0.219 µM) | MIC [8]: 16 µg/mL (≈ 28 µM) | MIC [9]: 0.125 µg/mL (≈ 0.219 µM) | MIC [10]: 0.25 µg/mL (≈ 0.437 µM) | MIC [11]: 32 µg/mL (≈ 56 µM) | MIC [12]: 0.125 µg/mL (≈ 0.219 µM) | MIC [13]: 0.06 µg/mL (≈ 0.105 µM) | MIC [14]: 0.06 µg/mL (≈ 0.105 µM) | MIC [15]: ≤ 0.06 µg/mL | MIC [16]: 0.25 µg/mL (≈ 0.437 µM) | MIC [17]: 0.125 µg/mL (≈ 0.219 µM) | MIC [18]: 0.5 µg/mL (≈ 0.875 µM) | MIC [20]: 0.06 µg/mL (≈ 0.105 µM) | MIC [21]: 0.125 µg/mL (≈ 0.219 µM) | MIC [22]: 0.06 µg/mL (≈ 0.105 µM)
